The text below walks through data of patent US6770299B1, “Lipid matrix-drug conjugates particle for controlled release of active ingredient” (PharmaSol GmbH, priority 1999, dated 2004).

For experiment [1], the system named is HL 60 tumor cells (human myeloid leukemia cell line). Kind of experiment: Differentiation of HL 60 tumor cells, NBT reduction. The format is cell-based. Particulars: HL 60 cells, free tributyrin dissolved in ethanol. The procedure:
The effectiveness of tributyrin drug vehicles was measured in HL 60 tumor cells (human myeloid leukemia cell line). HL 60 cells are a sensitive indicator of the effect of tributyrin. It brings about a differentiation of the tumor cells to granulocyte-like cells. The latter have the property of reducing NBT (nitro-blue tetrazolium) to a blue dye (H. P. Koeffler et al. Blood 62 1 (983) 709-721). Tributyrin-compritol particles, consisting of equal parts of tributyrin and compritol (glycerine tribehenate) were prepared as in Example 1. The overall lipid concentration was 5%, the Poloxamer 188 concentration likewise 5%. The particle size was 147 nm (PCS diameter), the polydispersion index 0.321. The differentiation effect was compared with that of free tributyrin, dissolved in ethanol. […] An adequate quantity of tributyrin-compritol nanoparticle dispersion was, like the corresponding quantities of surfactant solution and pure compritol particle dispersion, added to HL 60 cells and the NBT reduction ascertained after 6 days' incubation time at 37° C. and 5% carbon dioxide content.

The test system of another experiment is solid tumors. The note with it: oral preparation, phase 1 study; cited from earlier work.

Turning to `CCCC(=O)OCC(COC(=O)CCC)OC(=O)CCC` [tributyrin, 1,2,3 butyric acid glycerol ester], in experiment [1], the “effective 50% dosage (ED 50%), differentiation effect” value turned out to be 130 µM. Also, the tumor regression result in the experiment with solid tumors is reported as “No significant tumor regression”.
